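Each compound was tested at five concentrations against cells in 96-well plates for 48 hours. GI50 = concentration required for 50% inhibition of growth. The concentration for full growth arrest is given as TGI.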
Key:
Assay in all cases: NCI tumour cell line growth inhibition, 48 h
IGROV1 ovarian = system: IGROV1 ovarian
HCT-116 colon = system: HCT-116 colon
RPMI-8226 leukemia = system: RPMI-8226 leukemia
KM12 colon = system: KM12 colon
SW-620 colon = system: SW-620 colon
OVCAR-3 ovarian = system: OVCAR-3 ovarian
786-0 renal = system: 786-0 renal
OVCAR-8 ovarian = system: OVCAR-8 ovarian
NCI-H23 lung = system: NCI-H23 lung
HCT-15 colon = system: HCT-15 colon
COLO 205 colon = system: COLO 205 colon
HT29 colon = system: HT29 colon
K-562 leukemia = system: K-562 leukemia
SNB-19 CNS = system: SNB-19 CNS
SR leukemia = system: SR leukemia
CCRF-CEM leukemia = system: CCRF-CEM leukemia
SK-MEL-2 melanoma = system: SK-MEL-2 melanoma
SNB-75 CNS = system: SNB-75 CNS
EKVX NSCLC = system: EKVX NSCLC
A498 renal = system: A498 renal
UO-31 renal = system: UO-31 renal
SN12C renal = system: SN12C renal
HL-60(TB) leukemia = system: HL-60(TB) leukemia
MDA-MB-231 breast = system: MDA-MB-231 breast
ACHN renal = system: ACHN renal
UACC-62 melanoma = system: UACC-62 melanoma
OVCAR-5 ovarian = system: OVCAR-5 ovarian
TK-10 renal = system: TK-10 renal

With `CCOC(=O)c1c(C)n2c(=O)cc(C)c3c(O)c(O)cc1c32` the GI50 (IGROV1 ovarian) was 4.83 µM, the TGI (IGROV1 ovarian) was 87 µM and the GI50 (HCT-116 colon) was 18.5 µM. The TGI (HCT-116 colon) was 35.5 µM, the GI50 (RPMI-8226 leukemia) was 1.92 µM and the TGI (RPMI-8226 leukemia) was 15.1 µM. For the same compound, the GI50 (KM12 colon) was 4.13 µM, the TGI (KM12 colon) was 42.2 µM and the GI50 (SW-620 colon) was 4.3 µM. The TGI (SW-620 colon) was over 100 µM, the GI50 (OVCAR-3 ovarian) was 1.42 µM and the TGI (OVCAR-3 ovarian) was 9.94 µM. For the same compound, the GI50 (786-0 renal) was 8.83 µM, the TGI (786-0 renal) was over 100 µM and the GI50 (OVCAR-8 ovarian) was 2.7 µM. For the same compound, the TGI (OVCAR-8 ovarian) was 9.32 µM, the GI50 (NCI-H23 lung) was 10.9 µM and the TGI (NCI-H23 lung) was 51.6 µM. For the same compound, the GI50 (HCT-15 colon) was 2.48 µM, the TGI (HCT-15 colon) was 51.1 µM and the GI50 (COLO 205 colon) was 13.1 µM. The TGI (COLO 205 colon) was over 100 µM, the GI50 (HT29 colon) was 24.5 µM and the TGI (HT29 colon) was over 100 µM. It also gave a GI50 (K-562 leukemia) of 3.46 µM, a TGI (K-562 leukemia) of 33.3 µM and a GI50 (SNB-19 CNS) of 8.72 µM. It also gave a TGI (SNB-19 CNS) of over 100 µM, a GI50 (SR leukemia) of 0.721 µM and a TGI (SR leukemia) of 17 µM. The GI50 (CCRF-CEM leukemia) was 0.746 µM, the TGI (CCRF-CEM leukemia) was 6.05 µM and the GI50 (SK-MEL-2 melanoma) was 20.9 µM. It also gave a TGI (SK-MEL-2 melanoma) of over 100 µM, a GI50 (SNB-75 CNS) of 35.6 µM and a TGI (SNB-75 CNS) of over 100 µM. It also gave a GI50 (EKVX NSCLC) of 20.8 µM, a TGI (EKVX NSCLC) of over 100 µM and a GI50 (A498 renal) of 27.4 µM. For the same compound, the TGI (A498 renal) was over 100 µM, the GI50 (UO-31 renal) was 5.7 µM and the TGI (UO-31 renal) was over 100 µM. For the same compound, the GI50 (SN12C renal) was 3.85 µM, the TGI (SN12C renal) was 24.6 µM and the GI50 (HL-60(TB) leukemia) was 2.92 µM. For the same compound, the TGI (HL-60(TB) leukemia) was 17.2 µM, the GI50 (MDA-MB-231 breast) was 4.49 µM and the TGI (MDA-MB-231 breast) was 30.2 µM. The GI50 (ACHN renal) was 1.82 µM, the TGI (ACHN renal) was 31.2 µM and the GI50 (UACC-62 melanoma) was 8.9 µM. It also gave a TGI (UACC-62 melanoma) of 29.3 µM, a GI50 (OVCAR-5 ovarian) of 43.8 µM and a TGI (OVCAR-5 ovarian) of over 100 µM. The GI50 (TK-10 renal) was 5.47 µM.
